# Experimental data published in patent publication US20220372013A2, “PIPERIDINE-2,6-DIONE DERIVATIVES AND CROHN'S DISEASE TREATING” (Tianjin Hemay Pharmaceutical Sci-Tech Co., Ltd, priority 2016, published 2022).
# Marks after values point to notes of the source that are not given here.
# Key:
# [1] = tested on: DNBS-Induced Inflammatory Bowel Disease Models in Rats; experiment: Biological Example 2: DNBS-induced inflammatory bowel disease models in rats; format: in vivo, Wistar rats; settings: for Adhesion Degree / Colon Length / Colon Weight / Ulcer Area: sixth day, Mean ± SD; for growth rate of the body weight (in words): fourth day of the experiment, compared with model control group, doses as in Table 7
# Procedure: 110 male Wistar rats were fasted for 40 hours. A 5% glucose injection (10 mL/Kg) was administered subcutaneously during fasting. 48 rats with normal conditions and moderate body weight were selected from the fasting rats. The animals were randomly divided into […] according to the body weight: normal control group, model control group, sulfasalazine group (300 mg/Kg), dexamethasone group (0.1 mg/Kg), the compound in Example 26 group (30 mg/kg) and the compound in Example 27 group (30 mg/kg), with 8 rats in each group. The animals were anesthetized with isoflurane. A specially made gavage device (made by a rat gavage device having the diameter of 2 mm, which was nested on a mouse gavage device having the diameter of 1 mm) was slowly inserted into the enteric cavity at 8 cm from the anus. The model control group, the compound in Example 26 group and the compound in Example 27 group were administered with 0.5 mL of 50 mg/mL DNBS in 30% ethanol solution. The normal control group was administered with 0.5 mL of 30% ethanol solution. The animals were inverted in anesthesia for 15 minutes after the gavage device was removed. The day when the model was prepared was the first day of the experiment. After 4 hours of DNBS induction, the corresponding drug or the corresponding volume of 1% CMC-Na was administered once per day. On the sixth day of the experiment, the animals were euthanized to observe the results of each index so as to score the colon adhesion degree, measure the length of colon and ulcer area, weigh colon and calculate the colon weight to length ratio.
# The compound in Example 26 and Example 27, sulfasalazine and dexamethasone: Preparation Method: Suspended with 1% CMC-Na, and prepared when it was needed.
# Levene's Test for homogeneity of data was performed with Spss. Where the data were homogeneous (P>0.05), one-way ANOVA LSD test was performed. Where the analysis of variance was significant (P≤0.05), Dunnett's multiple comparison (parameter method) was performed. Where the results of Levene's Test were significant (P≤0.05), Kruskal-Wallis nonparametric test was performed. Where the results of Kruskal-Wallis nonparametric test were significant (P≤0.05), Mann-Whitney U test was performed for pairwise comparison.
# [2] = tested on: DNBS-Induced Inflammatory Bowel Disease Models in Rats; experiment: Biological Example 3: DNBS-induced inflammatory bowel disease models in rats; format: in vivo, Wistar rats; settings: 30 mg/Kg i.g. qd × 7; for Body weight: Mean ± SD
# Procedure: 102 male Wistar rats were fasted for 40 hours. A 5% glucose injection (10 mL/Kg) was administered subcutaneously during fasting. 72 rats with normal conditions and moderate body weight were selected from the fasting rats. The animals were randomly divided into 9 groups according to the body weight (see Table 9. Grouped Table).
# The animals were anesthetized with ether after 40 hours fasting. A specially made gavage device was slowly inserted into the enteric cavity at 8 cm from the anus. The model control group and each test group were administered with 0.5 mL of 50 mg/mL DNBS in 30% ethanol solution. The normal control group was administered with 0.5 mL of 30% ethanol solution. The animals were inverted in anesthesia for 15 minutes. The day when the model was prepared was day 0 of the experiment. After 4 hours of DNBS induction, the corresponding drug or the corresponding volume of 1% CMC-Na was administered once per day. On day 7 of the experiment, the animals were euthanized to score the colon adhesion degree, measure the length of colon and ulcer area, weigh colon and calculate the colon weight to length ratio.
# One-way ANOVA analysis of the length of colon and colon weight per length of rats was performed by SPSS22. Statistical analyses between groups were performed. The adhesion degree was scored. Mann-Whitney U non-parametric test was performed on ulcer area. Statistical analyses between groups were performed.
# Calculation Formula of Inhibitory rate of weight increase per length: (Colon weight to length ratio in model group−Colon weight to length ratio in administration group)/(Colon weight to length ratio in model group−Colon weight to length ratio in blank group)
# mice = experiment: Biological Example 5: acute toxicity experiment of single oral administration in mice; format: in vivo; settings: single oral 1000 mg/Kg, Mean ± SD
# Method in brief: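 Fasted ICR mice (19-21 g, three females and three males per group) received a single oral dose of 1000 mg/Kg, given first to one mouse of each sex and then to the remaining four. Behaviour, nervous and autonomic signs, and deaths were recorded over 0-15 min. Animals were then observed for 7 days with daily body weight.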
# [3] = tested on: DNBS-Induced Inflammatory Bowel Disease Models in Rats; experiment: Biological Example 1: DNBS-induced inflammatory bowel disease models in rats; format: in vivo, Wistar rats
# Procedure: Wistar rats, male, body weight of 100-120 g.
# 90 male Wistar rats were fasted for 40 hours. A 5% glucose injection was administered subcutaneously during fasting. 60 rats with normal conditions and moderate body weight were selected from the fasting rats. The animals were randomly divided into 6 groups according to the body weight: normal control group, model control group, sulfasalazine group (300 mg/Kg), and the compound in Example 27 groups consisting of 5, 15 and 30 mg/Kg dose groups. There were 10 rats in each group. The animals were anesthetized with ether. A specially made gavage device (made by a rat gavage device having the diameter of 2 mm, which was nested on a mouse gavage device having the diameter of 1 mm) was slowly inserted into the enteric cavity at 8 cm from the anus. The model control group, the sulfasalazine group and the compound in Example 27 groups were administered with 0.5 mL of 50 mg/mL DNBS in 30% ethanol solution. The normal control group was administered with 0.5 mL of 30% ethanol solution. The animals were inverted in anesthesia for 15 minutes after the gavage device was removed. The day when the model was prepared was the first day of the experiment. After 4 hours of DNBS induction, the corresponding drug or the corresponding volume of 1% CMC-Na was administered once per day. The body weights were recorded and the stool characteristics were scored. On the sixth day of the experiment colon tissues were taken from the animals to observe the results of each index.
# The compound in Example 27 and sulfasalazine: Preparation Method: Suspended with 1% CMC-Na, and prepared when it was needed.
# Animals were euthanized on the sixth day of the experiment to observe the results of each index. After the animals were sacrificed, colons were obtained. The adhesion degree of colon was observed and the length of the colon was measured. The ulcer area was calculated after removing the contents in the colon and the weight of the colon tissue was weighed. The colon tissue was longitudinally divided into two parts. One part of the colon tissue was fixed in 10% formalin solution for later use. The other part of the colon tissue was put into the liquid nitrogen to quickly frozen, and then was reserved at −80° C. for the detection of MPO.
# Calculation method for ulcer area: length of ulcer point (cm)×width of ulcer point (cm).
# The frozen tissue was ground into powder in liquid nitrogen. An appropriate amount of the powder was weighed and was added into 50 mM potassium phosphate solution (containing 0.5% cetyltrimethylammonium bromide) to give a 25 mg/mL solution. The resultant solution was homogenized by an electric homogenizer. 1 mL of suspension was centrifuged to give a supernatant. 7 μL of the supernatant was added into a 96-well plate and 200 μL of o-dianisidine mixture (containing 0.167 mg/mL o-dianisidine and 0.0006% H2O2 potassium phosphate buffer). OD values of the resultant solution at 0, 30, 60, and 90 s were detected at 450 nm of the microplate reader.
# Test for homogeneity of variance was performed with Spss13.0. Where variance of data was homogeneous (P>0.05), one-way ANOVA LSD test was performed. Where the analysis of variance was significant (P<0.05), then Dunnett's multiple comparison (parameter method) or Kruskal-Wallis non-parametric test was performed. Where the results of Kruskal-Wallis non-parametric test were significant (P<0.05), the Mann-Whitney U test was performed for pairwise comparison.
# Crohn's disease = settings: C. Yang et, Aliment Pharmacol Ther 2015; cited from earlier work
# [4] = 300 mg/Kg i.g. qd × 6, sixth day, Mean ± SD
structure (smiles),measurement,setting,value
"C[C@@H]1C[C@H]2[C@@H]3CCC4=CC(=O)C=C[C@]4(C)[C@@]3(F)[C@@H](O)C[C@]2(C)[C@@]1(O)C(=O)CO [Dexamethasone, dexamethasone, reference compound]",Adhesion Degree,[1]; 0.1 mg/Kg i.g. qd × 6,0.3 ± 0.5 Points
same,Colon Length,[1]; 0.1 mg/Kg i.g. qd × 6,14.2 ± 0.9 cm
same,Colon Weight,[1]; 0.1 mg/Kg i.g. qd × 6,1496.0 ± 450.0 mg
same,Ulcer Area,[1]; 0.1 mg/Kg i.g. qd × 6,1.4 ± 1.5# cm^2
"COCCCCN1C(=O)CCC(N2C(=O)c3cccc(N)c3C2=O)C1=O (centres unmarked) [Example 22, 4-amino-2-(1-(4-methoxybutyl)-2,6-dioxopiperidin-3-yl)isoindolin-1,3-dione]",Adhesion Degree of Colon,[2]; day 7,0.8 ± 0.9 point
same,Colon weight to length ratio,[2]; day 7,112 ± 40 mg/cm
same,Inhibitory rate of colon adhesion,[2]; day 7,52.9# %
same,Inhibitory rate of ulcer area of colon,[2]; day 7,40.5%
same,Inhibitory rate of weight increase per length,[2]; day 7,54.4# %
same,Ulcer area of colon,[2]; day 7,1.84 ± 2.59 cm^2
same,Body weight,[2]; Day 0,137.5 ± 7.2 g
same,Body weight,[2]; Day 1,137.0 ± 9.0 g
same,Body weight,[2]; Day 2,139.7 ± 11.2 g
same,Body weight,[2]; Day 3,144.1 ± 12.7 g
same,Body weight,[2]; Day 4,152.6 ± 20.0 g
same,Body weight,[2]; Day 5,162.7 ± 19.0 g
same,Body weight,[2]; Day 6,170.5 ± 17.7 g
same,Body weight,[2]; Day 7,178.3 ± 20.7 g
same,Daily Body Weight,"mice; Female mice, Day 1",18.5 ± 0.6 g
same,Daily Body Weight,"mice; Female mice, Day 2",21.8 ± 0.3 g
same,Daily Body Weight,"mice; Female mice, Day 3",22.9 ± 0.4 g
same,Daily Body Weight,"mice; Female mice, Day 4",24.0 ± 1.0 g
same,Daily Body Weight,"mice; Female mice, Day 5",25.0 ± 0.4 g
same,Daily Body Weight,"mice; Female mice, Day 6",25.3 ± 0.6 g
same,Daily Body Weight,"mice; Female mice, Day 7",25.6 ± 0.2 g
same,Daily Body Weight,"mice; Male mice, Day 1",17.1 ± 0.3 g
same,Daily Body Weight,"mice; Male mice, Day 2",22.9 ± 0.8 g
same,Daily Body Weight,"mice; Male mice, Day 3",23.5 ± 0.9 g
same,Daily Body Weight,"mice; Male mice, Day 4",25.2 ± 0.5 g
same,Daily Body Weight,"mice; Male mice, Day 5",27.2 ± 1.9 g
same,Daily Body Weight,"mice; Male mice, Day 6",27.1 ± 1.8 g
same,Daily Body Weight,"mice; Male mice, Day 7",27.4 ± 1.9 g
"COCCCN1C(=O)CCC(N2C(=O)c3cccc(N)c3C2=O)C1=O (centres unmarked) [Example 26, 4-amino-2-(1-(3-methoxypropyl)-2,6-dioxopiperidin-3-yl)isoindolin-1,3-dione]",Adhesion Degree,[1]; 30 mg/Kg i.g. qd × 6,0.3 ± 0.5 Points
same,Colon Length,[1]; 30 mg/Kg i.g. qd × 6,13.7 ± 1.4 cm
same,Colon Weight,[1]; 30 mg/Kg i.g. qd × 6,1628.3 ± 185.5 mg
same,Ulcer Area,[1]; 30 mg/Kg i.g. qd × 6,1.1 ± 0.9## cm^2
same,therapeutic effects on the model (in words),[1]; 30 mg/kg i.g. qd × 6,good therapeutic effects
same,growth rate of the body weight (in words),[1],higher than that in the model control group
same,Daily Body Weight,"mice; Female mice, Day 1",18.0 ± 0.7 g
same,Daily Body Weight,"mice; Female mice, Day 2",21.9 ± 0.3 g
same,Daily Body Weight,"mice; Female mice, Day 3",22.1 ± 0.5 g
same,Daily Body Weight,"mice; Female mice, Day 4",22.4 ± 0.2 g
same,Daily Body Weight,"mice; Female mice, Day 5",22.7 ± 0.3 g
same,Daily Body Weight,"mice; Female mice, Day 6",22.6 ± 0.3 g
same,Daily Body Weight,"mice; Female mice, Day 7",22.4 ± 0.2 g
same,Daily Body Weight,"mice; Male mice, Day 1",18.7 ± 0.8 g
same,Daily Body Weight,"mice; Male mice, Day 2",23.4 ± 0.5 g
same,Daily Body Weight,"mice; Male mice, Day 3",25.0 ± 0.6 g
same,Daily Body Weight,"mice; Male mice, Day 4",26.6 ± 1.4 g
same,Daily Body Weight,"mice; Male mice, Day 5",27.3 ± 1.3 g
same,Daily Body Weight,"mice; Male mice, Day 6",28.3 ± 1.3 g
same,Daily Body Weight,"mice; Male mice, Day 7",28.8 ± 1.4 g
"O=C(O)c1cc(/N=N/c2ccc(S(=O)(=O)Nc3ccccn3)cc2)ccc1O [Sulfasalazine, sulfasalazine, reference compound]",Adhesion Degree,[3]; [4],0.2 ± 0.4 Point
same,Colon MPO Activity,[3]; [4],26.0 ± 14.8 U/mg
same,Colon Weight,[3]; [4],1794.9 ± 242.3 mg
same,Colon weight to length ratio,[3]; [4],140.6 ± 27.9 mg/cm
same,Ulcer Area,[3]; [4],0.7 ± 0.6 cm^2
same,reduction of the ulcer area,"[3]; 300 mg/Kg, vs model control group",60%
same,Adhesion Degree,[1]; 300 mg/Kg i.g. qd × 6,0.8 ± 0.7 Points
same,Colon Length,[1]; 300 mg/Kg i.g. qd × 6,13.2 ± 2.5 cm
same,Colon Weight,[1]; 300 mg/Kg i.g. qd × 6,1776.1 ± 280.7 mg
same,Ulcer Area,[1]; 300 mg/Kg i.g. qd × 6,1.6 ± 1.2# cm^2
same,growth rate of the body weight (in words),[1],higher than that in the model control group
Nc1cccc2c1CN(C1CCC(=O)NC1=O)C2=O (centres unmarked) [lenalidomide],effectiveness in the treatment of Crohn's disease (in words),Crohn's disease,not effective
O=C1CCC(N2C(=O)c3ccccc3C2=O)C(=O)N1 (centres unmarked) [thalidomide],effectiveness in the treatment of Crohn's disease (in words),Crohn's disease,not effective
